Patent publication US20160138114A1, “Biomarkers of Response to Inhibition of Poly-ADP Ribose Polymerase (PARP) in Cancer” (THE REGENTS OF THE UNIVERSITY OF CALIFORNIA, priority 2013, published 2016)

How the values were obtained:
[1] = tested on: 184B5 CHD1L knock-in clone 7; test: BMN673 treatment of CHD1L knock-in clone; type: cell-based; conditions: Homo sapiens; 184B5 knock-in clone 7, high CHD1L protein expression
Procedure: (§1) This example illustrates the creation of cell lines overexpressing CHD1L protein by vector knock-in. Briefly, breast cancer cell line 184B5 cells were transduced with lentivirus containing CHD1L cDNA. After transduction, clones transfected with CHD1L were selected with 500 μg/mL G418 for 1 week. Expression of CHD1L protein in the 24 knock-in clones and the parental cell line 184B5 was detected by Western blot. […] This example illustrates that the knock-in of CHD1L protein sensitized breast cancer cells to BMN673 treatment. Briefly, 184B5 knock-in clones 7 and 14 (i.e., cells with high CHD1L protein expression) were treated with BMN673 and compared with the 184B5 parental cell line (i.e., cells with low CHD1L protein expression) treated with BMN673, with respect to percent death from baseline (FIG. 5, top panel) and percent growth inhibition (FIG. 5, bottom panel).

[2] = tested on: 184B5 CHD1L knock-in clone 14; test: BMN673 treatment of CHD1L knock-in clone; type: cell-based; conditions: Homo sapiens; 184B5 knock-in clone 14, high CHD1L protein expression
Procedure: as §1

184B5 parental cell line = test: BMN673 treatment of CHD1L knock-in study, parental line; type: cell-based; conditions: Homo sapiens, low CHD1L protein expression
Procedure: as §1

HCC1187 = test: BMN673 sensitivity (cell growth) in cancer cell line; type: cell-based, human; conditions: HCC1187, Breast
Procedure: (§2) This example illustrates that CHD1L amplification correlated with overexpression of CHD1L protein. […] CHD1L protein expression in the NSCLC and breast cancer cell lines was assayed by Western blot with antibodies against CHD1L. […] HCC1937 was used as a negative control for CHD1L protein expression, as the cell line carries a loss of heterozygosity (LOH) of CHD1L. Each of these cell lines was also assayed for sensitivity or resistance to inhibition of PARP by BMN673. Briefly, each cell line was cultured and exposed to a range of concentrations of BMN673 to determine an IC50 value of inhibitory effect on PARP (as evidenced by cell growth) for each cell line (see Table 2).

EMF192A = test: as above; type: cell-based, human; conditions: Breast
Procedure: as §2

CaLu1 = test: as above; type: cell-based, human; conditions: CaLu1, Lung
Procedure: as §2

H1568 = test: as above; type: cell-based, human; conditions: H1568, Lung
Procedure: as §2

H1838 = test: as above; type: cell-based, human; conditions: H1838, Lung
Procedure: as §2

184B5 = test: as above; type: cell-based, human; conditions: 184B5, Breast
Procedure: as §2

HCC1937 = test: as above; type: cell-based, human; conditions: HCC1937, Breast
Procedure: as §2

MCF7 = test: as above; type: cell-based, human; conditions: MCF7, Breast
Procedure: as §2

H1651 = test: as above; type: cell-based, human; conditions: H1651, Lung
Procedure: as §2

MDA-MB-436 = test: as above; type: cell-based, human; conditions: MDA-MB-436, Breast
Procedure: as §2

BT-20 = test: as above; type: cell-based, human; conditions: BT-20, Breast
Procedure: as §2

BT-474 = test: as above; type: cell-based, human; conditions: BT-474, Breast
Procedure: as §2

IC50 [1]: 62 nM
IC50 [2]: 30 nM
IC50 (HCC1187; Homo sapiens, 1q21 AMP): 1.09 nM
IC50 (EMF192A; Homo sapiens, 1q21 NC): 897 nM
IC50 (CaLu1; Homo sapiens, Calu-1, 1q21 NC): 2560 nM
IC50 (H1568; Homo sapiens, NCI-H1568, 1q21 AMP): 49.8 nM
IC50 (H1838; Homo sapiens, NCI-H1838, 1q21 AMP): 1.2 nM
IC50 (184B5; Homo sapiens, 1q21 NC): 5480 nM
IC50 (HCC1937; Homo sapiens, 1q21 LOH): 84.2 nM
IC50 (MCF7; Homo sapiens, 1q21 AMP): 92.8 nM
IC50 (H1651; Homo sapiens, NCI-H1651, 1q21 AMP): 6.31 nM
IC50 (MDA-MB-436; Homo sapiens, 1q21 AMP): 0.19 nM
IC50 (BT-20; Homo sapiens, 1q21 NC): 352 nM
IC50 (BT-474; Homo sapiens, 1q21 NC): 595 nM
Compound: Cn1ncnc1[C@H]1c2n[nH]c(=O)c3cc(F)cc(c23)N[C@@H]1c1ccc(F)cc1 [BMN673]
IC50 (184B5 parental cell line): ~1000 nM
Response (HCC1187): sensitive and Sens
Response (EMF192A): resistant and Res
Response (CaLu1): resistant and Res
Response (H1568): Int
Response (H1838): sensitive and Sens
Response (184B5): resistant and Res
Response (HCC1937): Int
Response (MCF7): sensitive and Int
Response (H1651): sensitive and Sens
Response (MDA-MB-436): sensitive and Sens
Response (BT-20): resistant and Res
Response (BT-474): resistant and Res
